Data: patent US20220041627A1, “PRODRUGS OF ANTI-CANCER AND ANTI-AUTOIMMUNE DISEASES THERAPEUTIC AGENTS, AND METHODS OF MAKING AND USE THEREOF” (UNIVERSITY OF MARYLAND, BALTIMORE, priority 2018, published 2022)

Tests used:
[1] = test system: breast cancer MCF7 cells; assay: Cell viability (CCK8) in breast cancer MCF7 cells; type: cell-based, human; settings: different concentrations, compared with parent drug 5-FU
Procedure: FIGS. 2A and 2B illustrate the anticancer effects and selectivity of 5-FU and compounds 1a-1c. Cell viability was analyzed after the breast cancer MCF7 cells (FIG. 2A) and normal MEC1 cells (FIG. 2B) were treated with 5-FU or compounds 1a-1c at different concentrations. Data are presented as mean±SD, n=4.
Cell Counting Kit-8 (CCK8, Dojingo) was used to carry out the cytotoxicity assessment of the prodrugs. Seeded cells were treated with varying compound concentrations for 48-72 h and the CCK8 kit was used to measure the cytotoxicity. For NAC experiments, this ROS scavenger was pre-incubated with the cells for 2 h and then co-incubated with the prodrugs for additional 48 hours unless otherwise noted.
The anticancer effects of new compounds 1a and 1b were tested using the breast cancer MCF7 cells and normal MEC1 cells (FIGS. 2A and 2B). […] These differential killing results highlight the specificity of new prodrugs 1a-1b for cancer cells over normal cells. […] To further verify the role of ROS in the drug release process, the MTT assays was performed, using MCF7 cells pretreated with the ROS scavenger N-Acetyl-Cysteine (NAC).

[2] = biological target: dihydropyrimidine dehydrogenase (DPD) (Homo sapiens, UniProt Q12882); settings: injected 5-FU, degradation into 5-FUH2; cited from earlier work
Chain of dihydropyrimidine dehydrogenase (DPD) (Q12882 4-1025): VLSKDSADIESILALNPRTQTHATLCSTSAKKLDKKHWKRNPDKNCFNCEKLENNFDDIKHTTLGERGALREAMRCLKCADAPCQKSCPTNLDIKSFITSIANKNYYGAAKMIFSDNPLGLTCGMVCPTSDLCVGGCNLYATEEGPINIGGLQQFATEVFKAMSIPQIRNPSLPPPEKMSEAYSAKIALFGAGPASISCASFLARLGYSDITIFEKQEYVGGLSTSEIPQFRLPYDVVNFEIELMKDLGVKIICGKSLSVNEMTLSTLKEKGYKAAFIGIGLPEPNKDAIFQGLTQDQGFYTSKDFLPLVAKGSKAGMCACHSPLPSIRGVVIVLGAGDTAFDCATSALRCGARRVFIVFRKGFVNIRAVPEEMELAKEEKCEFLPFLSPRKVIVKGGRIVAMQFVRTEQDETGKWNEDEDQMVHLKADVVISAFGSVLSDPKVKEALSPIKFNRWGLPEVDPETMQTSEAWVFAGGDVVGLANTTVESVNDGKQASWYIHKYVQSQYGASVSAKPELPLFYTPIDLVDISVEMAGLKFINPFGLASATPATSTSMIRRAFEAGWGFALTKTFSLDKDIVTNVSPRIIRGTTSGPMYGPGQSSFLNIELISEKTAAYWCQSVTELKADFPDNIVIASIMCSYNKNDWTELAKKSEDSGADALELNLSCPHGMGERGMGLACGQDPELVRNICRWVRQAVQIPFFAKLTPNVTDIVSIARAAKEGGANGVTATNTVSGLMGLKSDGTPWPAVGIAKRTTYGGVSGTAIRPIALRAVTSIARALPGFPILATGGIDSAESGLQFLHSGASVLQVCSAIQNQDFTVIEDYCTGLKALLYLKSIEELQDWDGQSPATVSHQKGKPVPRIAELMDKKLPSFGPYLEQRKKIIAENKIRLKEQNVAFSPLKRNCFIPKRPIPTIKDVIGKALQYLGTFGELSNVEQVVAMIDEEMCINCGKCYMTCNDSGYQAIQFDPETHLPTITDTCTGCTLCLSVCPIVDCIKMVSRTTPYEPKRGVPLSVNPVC

[3] = test system: wild-type C57BL/6 male mice; assay: Acute toxicity in mice; type: in vivo; settings: 100 mg/kg i.p. every other day for 15 days, C57BL/6 male mice
Procedure: FIGS. 5A and 5B illustrate the survival rate (FIG. 5A) and body weight (FIG. 5B) curves of the various groups of mice. […] Mice were treated every other day by intraperitoneal (i.p.) injection for 15 days, the survival and body weights of the mice were recorded after treatment.
Mice were treated every other day by intraperitoneal (i.p.) injection for 15 days, the survival and body weights of the mice were recorded after treatment.

[4] = test system: caspase 3; assay: Western blot of caspase 3 in MCF7 cells; type: cell-based, human; settings: 48 h
Procedure: (§1) FIGS. 4A and 4B illustrate the effect of compounds 1a-1b in apoptosis. FIG. 4A: immunofluorescence of DNA cleavage protein γH2Ax was enhanced by using 5-FU and prodrugs 1a-1b. FIG. 4B: immunoblot analysis of MCF-7 cells treated with 5-FU, prodrugs 1a-1b for apoptosis markers PARP1 and Caspase 3. The cells were treated for 48 h with the indicated concentrations of compounds.
(§2) Western Blot Analysis. Treated cells were washed once with PBS and lysed with RIPA lysis buffer (Santa Cruz Biotechnology, SCBT, #24948) supplemented with sodium orthovanadate, PMSF, protease and phosphatase inhibitor cocktails (Sigma Aldrich). Cell lysates were centrifuge for 15 min at 14,000×g and the supernatant was used for immunoblotting. Protein concentration was normalized for the samples and resolved on a 10-13% SDS-PAGE gel. Following transfer to nitrocellulose membrane, specific mouse primary antibodies from SCBT (PARP1 #sc-8007, caspase 3 #sc-7272) and Cell Signaling (cleaved PARP1 #9541, cleaved caspase-3 #9664) were added and incubated overnight. Secondary antibodies corresponding to the host of the primary antibodies was further incubated with the membrane and washed three times to remove excess antibodies. Odyssey Fc Imaging System (LI-COR, Lincoln, Nebr.) was used to quantify the chemiluminescent of the proteins.
(§3) To understand the mechanism of action of prodrugs 1a-1b, the impact of the treatment of compounds 1a-1b on the γH2AX formation in MCF7 cells were determined using immunofluorescence assay (FIG. 4A). […] The effects of prodrugs 1a-1b on the PARP1 and caspase 3 cleavage in MCF7 cells were also determined using Western blots assays (FIG. 4B). […] Treatment of 5-FU and compounds 1a-1b increased the levels of cleavage of PARP1 and caspase 3 in MCF7 cells, as compared with that in the vehicle-treated controls. Therefore, prodrugs 1a-1b, similar to 5-FU, can induce MCF7 cell apoptosis, which might contribute to their pharmacological actions.

[5] = test system: γH2AX; assay: γH2AX immunofluorescence assay in MCF7 cells; type: cell-based, human; settings: 48 h
Procedure: as §1
Immunohistochemistry Analysis. MCF7 cells were seeded on poly-D-lysine coated slides. Compounds were incubated with cells for 48 h. Following treatment, cells were washed once in PBS and fixed in 10% formalin for 20 min at room temperature. Methanol was used to permeabilize the cells for 10 min and PBS wash was carried out. Bovine serum albumin was used for 1 h blocking and primary antibodies for γH2AX (SCBT, #sc-517348) was incubated with the cells overnight. Fluorescent secondary antibodies were incubated with cells along with DAPI. Cells were washed trice with PBS and the slides were mounted prior to confocal imaging.
as §3

[6] = test system: PARP1; assay: Western blot of PARP1 in MCF7 cells; type: cell-based, human; settings: 48 h
Procedure: as §1, §2, §3

[7] = test system: human colorectal cancer cells SW480; assay: Anti-proliferative activity in SW480 cells; type: cell-based; settings: 10 μM, compared to parent drug 6MP
Procedure: FIG. 12 illustrates the anticancer effects and selectivity of 6MP (10 μM), prodrugs YA6131 (10 μM) and YA6075 (10 μM), evaluated in human colorectal cancer cells SW480 and normal HEK293 cells.
Anticancer effects and selectivity of 6MP (10 μM), prodrugs YA6131 (10 μM) and YA6075 (10 μM): the anticancer activities of prodrugs YA6131 and YA6075 were evaluated in comparison to the parent drug 6MP using the human colorectal cancer cells SW480 and normal HEK293 cells (FIG. 12). […] Without wishing to be bound by any particular theory, it was reasoned that the difference of the anticancer effects of the two prodrugs were due to their different release kinetics of the two compounds in the particular cells used.

[8] = compared to vehicle-treated cells
[9] = compared to vehicle-treated controls

Structure (SMILES): O=c1[nH]c(=O)n(Cc2ccccc2)cc1F [Compound 1c, 1-Benzyl-5-fluoropyrimidine-2,4(1H,3H)-dione]
- antiproliferative activity / anticancer effects [1]: no obvious antiproliferative effects

Structure (SMILES): O=c1[nH]cc(F)c(=O)[nH]1 [Compound 5-FU, 5-fluorouracil, reference compound]
- share of injected doses deactivated by DPD [2]: more than 85%
- survival / animal death [3]: killed all mice on the twelfth day
- expression level of caspase 3 [4, 8]: significantly reduced
- level of cleavage of caspase 3 [4, 9]: increased
- γH2AX formation [5]: enhanced
- expression level of PARP1 [6, 8]: significantly reduced
- level of cleavage of PARP1 [6, 9]: increased

Structure (SMILES): CC1(C)OB(c2ccc(Cn3cnc4c(S)ncnc43)cc2)OC1(C)C [YA6075, 9-(4-(4,4,5,5-Tetramethyl-1,3,2-dioxaborolan-2-yl)benzyl)-9H-purine-6-thiol]
- anti-proliferative activity [7]: reduced effect

Structure (SMILES): CC1(C)OB(c2ccc(CSc3ncnc4[nH]cnc34)cc2)OC1(C)C [YA6131]
- anti-proliferative activity [7]: similarly potent anti-proliferative activity as compared to 6MP
